Results taken from US20250214996A1, “SALTS AND SOLID FORMS OF AN ESTROGEN RECEPTOR ANTAGONIST” (Olema Pharmaceuticals, Inc., priority 2022, published 2025).
In brackets after ≈: the same amount, converted by molar mass. Several values for one entry are separate records, joined by “and”; a condition that tells them apart may be missing. Identical values can stand only once. Like-named read-outs stand apart in the source and are kept apart here. Marks after values point to notes of the source that are not given here.

Tests used:
[1] = Kinetic solubility estimate, solvent aliquot addition, visual observation; assay type: physicochemical
Method: A polymorph screen was conducted using amorphous Compound 1. To help design the experiments, kinetic solubilities of the compound were estimated. The estimation was done using a solvent aliquot addition method, and dissolution was judged by visual observation. In Table 14, solvent ratios (v/v) are approximate; values are rounded to nearest whole number. If complete dissolution was achieved by one aliquot addition, solubilities were reported as “>”; if […], solubilities were reported as “<”. The actual solubility may be larger than the value calculated due to the use of solvent aliquots that were too large or due to a slow rate of dissolution.
A polymorph screen was conducted using Compound 1 Fumarate Form A Ethyl Acetate Solvate. The screen consisted primarily of long term slurry experiments. To help design screen experiments, kinetic solubilities of Fumarate Form A Ethyl Acetate Solvate were estimated. The estimation was done on a 3-11 mg scale using a solvent aliquot addition method, and dissolution was judged by visual observation. Solubilities are estimated at ambient temperature and reported to the nearest mg/mL; if complete dissolution was achieved by one aliquot addition, solubilites were reported as […]

[2] = Pharmacokinetic study in Beagle dogs, oral capsule; assay type: in vivo; details: for AUClast/D / AUC∞/D: dose-normalised
Method: Compound 1 […] in two different forms was administered orally (PO) to male and female Beagle dogs. Blood was serially collected up to 144 hours post dose for determination of plasma pharmacokinetic analysis.
Animals were healthy at the start of the study and were between 1 and 6.5 years of age. Initial body weights were recorded at the start of the study and general health observations were recorded at each blood collection time point.
Each Group contained 3 male and 1 female dog. Capsules were administered by placing the capsule to the back of the throat, followed by a 10 mL flush with drinking water.
Plasma concentrations of Compound 1 were determined by LC-MS/MS. Pharmacokinetic parameters were determined using Phoenix WinNonlin (v8.0) non-compartmental analyses.

[3] = Dynamic vapor sorption (DVS) hygroscopicity; assay type: physicochemical; details: for Form Change after DVS?: XRPD before and after DVS
Method: Dynamic Vapor Sorption (DVS) was measured by a SMS (Surface Measurement Systems) DVS Intrinsic. Parameters for DVS test are listed below:
Alternatively, DVS was performed using Intrinsic DVS ([…], UK). About 30-50 mg of sample was placed in a sample basked and hung in the measuring chamber. For an isotherm test, the chamber temperature is maintained by a water bath at a constant 25±1° C. The sample was tested at a targeted RH from 0 to 90% full cycle in step mode. The analysis was performed in 10% RH increments. Time duration at each RH was set as 60 min so that the sample could reach equilibrium with the chamber environment. Data were collected in 20 s increments.
A DVS isotherm plot was collected at 25° C. to investigate the solid form stability as a function of humidity. For Compound 1 Fumarate Form A Anhydrate, solids were pre-equilibrated at 0% RH to remove the unbounded solvent or water before the hygroscopicity experiment was started.

[4] = Solubility by dynamic method; assay type: physicochemical; details: for solubility at 15 min: organic solvent or mixture, thermodynamic from solid; for solubility at 15 min / Solubility: Dynamic
Method: […] Solubility was measured by the dynamic method and gravimetric method.
Dynamic method: Under the condition of a certain amount of solute and certain temperature, solvent was gradually added with stirring for 15 min to reach equilibrium. When solute is completely dissolved, amount of solvent was recorded and the solubility calculated.

[5] = Stability in oven at 60° C. for two weeks; assay type: physicochemical; details: for HPLC Purity (%) Starting: before storage; for XRPD: form after oven at 60° C. for two weeks
Method: Amorphous Compound 1, Compound 1 Fumarate Form E, and Compound 1 Fumarate Form A Anhydrate were placed in an oven at 60° C. for two weeks to evaluate their stability.

[6] = Solid form change on heating (XRPD); assay type: physicochemical
[7] = Solubility by gravimetric method; assay type: physicochemical; details: H2O, 25° C.
Method: Solubility studies of Compound 1 and Compound 1 Fumarate in different solvents at 25° C. were performed. Solubility was measured by the dynamic method and gravimetric method.
Gravimetric method: Excess solids and a certain amount of solvent were added 8 mL vials, stirred for 24 hours, and filtered.

[8] = Bulk density in graduated cylinder; assay type: physicochemical
Method: Bulk density of Compound 1 Fumarate Form E was measured by gently introducing a known sample mass into a graduated cylinder (50 mL), leveling the powder without compacting it, and recording the apparent untapped volume to the nearest graduated unit.

[9] = Competitive slurry of Fumarate Form E and Fumarate Form A Anhydrate (XRPD); assay type: physicochemical
Method: Competitive slurry experiments were performed with Compound 1 Fumarate Form E and Compound 1 Fumarate Form A Anhydrate, as follows:
Experiment #1: Compound 1 Fumarate Form E (100 mg), Compound 1 Fumarate Form A Anhydrate (100 mg), and isopropanol (2 mL) were added into two 8-mL vials and mixed well in a shaker at 25° C. and 40° C., respectively. Samples for analysis were taken at 24 h and 72 h.
Experiment #2: Compound 1 Fumarate Form E (100 mg), Compound 1 Fumarate Form A Anhydrate (100 mg), and water (2 mL) were added into two 8-mL vials and mixed well in a shaker at 25° C. and 40° C., respectively. Samples for analysis were taken at 24 h and 72 h.
Experiment #3: Compound 1 Fumarate Form E (100 mg), Compound 1 Fumarate Form A Anhydrate (100 mg), and ethyl acetate (2 mL) were added into two 8-mL vials and mixed well in a shaker at 25° C. and 40° C., respectively. Samples for analysis were taken at 24 h and 72 h.

[10] = dose 5.34 mg/kg (Group 1), 7.4 mg/kg (Group 2), plasma
[11] = both sexes, dog, dose 5.34 mg/kg (Group 1), 7.4 mg/kg (Group 2), plasma

SMILES: CCCN1CC(Oc2ccc([C@@H]3c4[nH]c5ccccc5c4C[C@@H](C)N3CC(C)(C)F)cc2)C1.O=C(O)/C=C/C(=O)O
- Solubility ([1]; ambient temperature, 2-BuOH): 17 mg/mL
- Solubility ([1]; ambient temperature, 2-McTHF): 32 mg/mL
- Solubility (mg/mL) ([1]; ambient temperature, ACN, re-precipitated after first aliquot): <2* mg/mL
- Solubility ([1]; ambient temperature, Anisole): <1 mg/mL
- Solubility ([1]; ambient temperature, DCE): <9 mg/mL
- Solubility (mg/mL) ([1]; ambient temperature, DCE/EtOH (96/4)): Dissolved at 8 mg/mL
- Solubility ([1]; ambient temperature, Dioxane): >104 mg/mL
- Solubility ([1]; ambient temperature, IPA): 20 mg/mL
- Solubility ([1]; ambient temperature, IPA/water (50/50)): >124 mg/mL
- Solubility ([1]; ambient temperature, MIBK): 4 mg/mL
- Solubility ([1]; ambient temperature, MTBE): 2 mg/mL
- Solubility ([1]; ambient temperature, TFE): >100 mg/mL
- Solubility (mg/mL) ([1]; ambient temperature, t-BuOAc, re-precipitated after first aliquot): 1* mg/mL
- AUC∞ ([2]; dose 5.34 mg/kg (Group 1), 7.4 mg/kg (Group 2)): 17271 ng·h/mL
- MRTlast [2, 10]: 39.8 h
- t1/2 [2, 10]: 49.6 h
- tmax [2, 10]: 3.5 h
- AUClast/D [2]: 2001 kg·ng·h/mL/mg
- AUC∞/D [2]: 2351 kg·ng·h/mL/mg

SMILES: CCCN1CC(Oc2ccc([C@@H]3c4[nH]c5ccccc5c4C[C@@H](C)N3CC(C)(C)F)cc2)C1 [Amorphous Compound 1]
- Form Change after DVS? ([3]; listed as Amorphous Freebase): No
- Hygroscopicity (%)* (class) ([3]; based on water uptake at 25° C./80% RH): Slightly
- Hygroscopicity (%)* (water uptake) ([3]; water uptake at 25° C./80% RH): (0.463) %
- Solubility ([1]; aqueous with cosolvent or surfactant or cyclodextrin, thermodynamic from solid, amorphous Compound 1, 2-MeTHF/MeOH/water (60/20/20), read-out: Solubility): 106 mg/mL (≈ 236 mM)
- Solubility ([1]; aqueous with cosolvent or surfactant or cyclodextrin, thermodynamic from solid, amorphous Compound 1, ACN/water (60/40), read-out: Solubility): < 6 mg/mL
- Solubility ([1]; aqueous with cosolvent or surfactant or cyclodextrin, thermodynamic from solid, amorphous Compound 1, Dioxane/water (60/40), read-out: Solubility): < 13 mg/mL
- Solubility ([1]; aqueous with cosolvent or surfactant or cyclodextrin, thermodynamic from solid, amorphous Compound 1, MeOH/water (40/60), appeared hydrophobic, read-out: Solubility): < 55 mg/mL
- Solubility ([1]; aqueous with cosolvent or surfactant or cyclodextrin, thermodynamic from solid, amorphous Compound 1, NMP/water (68/32), read-out: Solubility): 7 mg/mL (≈ 15.6 mM)
- Solubility ([1]; organic solvent or mixture, thermodynamic from solid, amorphous Compound 1, Heptane, read-out: Solubility): > 191 mg/mL
- Solubility ([1]; organic solvent or mixture, thermodynamic from solid, amorphous Compound 1, IPA, read-out: Solubility): 82 mg/mL (≈ 182 mM)
- solubility in isopropanol ([4]; 25° C.): high solubility
- solubility at 15 min ([4]; IPA, 25° C.): > 468 mg/mL
- HPLC Purity (%) Starting [5]: 99.23%
- XRPD [5]: No change
- HPLC Purity (%) 60° C. ([5]; oven at 60° C. for two weeks): 98.94%
- HPLC Purity (%) Degradation ([5]; oven at 60° C. for two weeks): −0.29%
- Cmax [2, 11]: 343 ng/mL
- MRT last [2, 11]: 37.8 h
- half-life [2, 11]: 56.4 h
- tmax ([2]; both sexes, dog, dose 5.34 mg/kg (Group 1), 7.4 mg/kg (Group 2), plasma, read-out: tmax): 3.25 h
- AUC(0-inf) ([2]; both sexes, dog, plasma, dose 5.34 mg/kg (Group 1), 7.4 mg/kg (Group 2)): 8960 ng·h/mL
- AUC(0-t) ([2]; both sexes, dog, plasma, dose 5.34 mg/kg (Group 1), 7.4 mg/kg (Group 2), up to 144 hours): 7460 ng·h/mL
- AUClast/D [2]: 1297 kg·ng·h/mL/mg
- AUC∞/D [2]: 1527 kg·ng·h/mL/mg

SMILES: CCCN1CC(Oc2ccc([C@@H]3c4[nH]c5ccccc5c4C[C@@H](C)N3CC(C)(C)F)cc2)C1 [Compound 1 Form A Acetonitrile Solvate]
- hygroscopicity by DVS ([3]; DVS): slightly hygroscopic
- water uptake (DVS) ([3]; DVS, FIG. 4): 1.9%
- Form Change after DVS? [3]: same crystalline pattern after DVS
- form after heating (XRPD) ([6]; heating to 70° C. and 80° C.): became amorphous

SMILES: CCCN1CC(Oc2ccc([C@@H]3c4[nH]c5ccccc5c4C[C@@H](C)N3CC(C)(C)F)cc2)C1 [Compound 1 Form B]
- form after heating (XRPD) ([6]; heating to 100° C.): became amorphous

SMILES: CCCN1CC(Oc2ccc([C@@H]3c4[nH]c5ccccc5c4C[C@@H](C)N3CC(C)(C)F)cc2)C1.O=C(O)/C=C/C(=O)O [Compound 1 Fumarate Form E]
- hygroscopicity by DVS ([3]; DVS): not hygroscopic
- Solubility ([4]; IPA/heptane (1/1), 25° C.): ~2.35 mg/mL
- Solubility ([4]; IPA/heptane (1/3), 25° C.): <1 mg/mL
- Solubility ([4]; IPA/heptane (5/1), 25° C.): 5.89 mg/mL
- Solubility ([4]; IPA/heptane (5/3), 25° C.): ~3.57 mg/mL
- Solubility ([4]; IPA, 0° C.): <1 mg/mL
- Solubility ([4]; IPA, 25° C.): ~8.46 mg/mL
- solubility in isopropanol ([4]; 25° C.): very low solubility
- Solubility [7]: 1.0 mg/mL
- Bulk Density (g/mL), Average ([8]; average of three runs): 0.1239 g/mL
- Bulk Density ([8]; untapped, runs 1-3): 0.1288 g/mL and 0.1233 g/mL and 0.1196 g/mL
- HPLC Purity (%) Starting [5]: 99.54%
- XRPD [5]: No change
- HPLC Purity (%) 60° C. ([5]; oven at 60° C. for two weeks): 99.50%
- HPLC Purity (%) Degradation ([5]; oven at 60° C. for two weeks): −0.05%
- stability relative to Amorphous Compound 1 ([5]; oven at 60° C. for two weeks): improved stability
- competitive slurry outcome (XRPD) ([9]; ethyl acetate, 72 h at 25° C. or 40° C.): a mixture of Compound 1 Fumarate Form E and Compound 1 Fumarate Form A Anhydrate remained
- competitive slurry outcome (XRPD) ([9]; isopropanol, 24 h at 25° C. or 40° C.): more stable than Form A in isopropanol
- competitive slurry outcome (XRPD) ([9]; water, 72 h at 25° C. or 40° C.): a mixture of Compound 1 Fumarate Form E and Compound 1 Fumarate Form A Anhydrate remained

SMILES: O=C(O)/C=C/C(=O)O [Fumaric acid]
- solubility in isopropanol ([4]; 25° C.): relatively low solubility
- solubility at 15 min ([4]; IPA, 25° C.): 34.3 mg/mL (≈ 296 mM)
